The text below walks through data of paper PMC7684578, “Isopedopeptins A–H: Cationic Cyclic Lipodepsipeptides from Pedobacter cryoconitis UP508 Targeting WHO Top-Priority Carbapenem-Resistant Bacteria” (ACS Chemical Biology, 2020).

The target in one assay is cellular LPS receptors. More on the design: method as in PMID 24281661. The following applies: read-out: IC50 inhibition of binding of bacterial LPS to cellular receptors; cited from earlier work.
Assay [1] in a line: Bacterial membrane permeabilization assay (carboxyfluorescein leakage from liposomes). It counts as biochemical. The following applies: large unilamellar liposomes from E. coli phospholipid extract, 45 min, 37 °C.

As for polymyxin B, on cellular LPS receptors, the IC50 – broadly, the point on the concentration scale where inhibition reaches its midpoint – is 3.6 nM. In addition, the EC50 (usually the concentration at which the effect is half-maximal) in assay [1] is 1000 nM; in assay [1] (listed as Polymyxin B), about 1000 nM.
